{"source": "patent US20210121438A1", "about": "“METHODS FOR TREATING OR PREVENTING CONFORMATION DISEASES AND METHODS FOR DRUG SCREENING” (GARAGE BRAIN SCIENCE CO., LTD, priority 2018, published 2021)", "key": {"SMNA7 cells": {"tested_on": "SMNA7 cells", "test": "Morphology (neurite-like structure) of SMNA7 cells", "assay_type": "cell-based", "settings": "after treating with b-isox", "description": "We investigate whether baicalein can act as a pharmacological chaperone to refold misfolded SMNA7 into a functional prion-like domain, as shown in FIG. 8 (FIG. 10a). […] PFN1 is a known SMN interactor in the cytosol. We further examined whether baicalein attenuated the degradation of the SMNA7 protein. […] We found baicalein increased the length of axons from NSC34 cells expressing SMNA7 by approximately 2-fold (FIG. 10g)."}, "SMN": {"biological_target": "T1, SMN (Homo sapiens, UniProt Q16637)", "T1 construct": "endogenous in cells; host or cells: 293T (also mes23.5)", "T1 sequence (Q16637 2-294)": "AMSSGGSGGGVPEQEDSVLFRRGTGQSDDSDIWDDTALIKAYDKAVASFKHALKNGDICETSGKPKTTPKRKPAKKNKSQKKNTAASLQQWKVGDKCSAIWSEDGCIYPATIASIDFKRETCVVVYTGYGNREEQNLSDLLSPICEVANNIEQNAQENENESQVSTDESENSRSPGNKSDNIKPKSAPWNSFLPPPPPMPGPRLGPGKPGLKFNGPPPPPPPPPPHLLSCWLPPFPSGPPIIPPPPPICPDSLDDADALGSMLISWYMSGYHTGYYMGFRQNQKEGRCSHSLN", "test": "B-isox precipitation, SMN", "assay_type": "binding", "settings": "100 μM b-isox, lysates of mes23.5 and 293T cells, 4° C.", "method": "(§1) B-isox Precipitation: The 293T cells were harvested and lysed with RIPA buffer. The protein concentration was adjusted to 1 to 10 mg/mL, and 10 mM biotinylated isoxazole was added to the cell lysate to a final concentration of 100 to 200 µM. The mixtures were then incubated at 4° C. for 60 min, centrifuged at 15000 rpm for 15 min at 4° C., and the supernatant was discarded. The entire reaction volumes were subjected to SDS-PAGE and western blotting.\nBiotinylated isoxazole (b-isox), a recently identified specific chemical probe, specifically recognizes the cross-β prion-like polymer and sequentially precipitates with proteins with low complexity, prion-like domains, or phase-separated domains, such as TDP-43 and Fus. We initially incubated 100 μM b-isox with cell lysates of mes23.5 and 293T cells at 4° C. to chemically precipitate whole prion-like proteins and then analyzed the efficiency of SMN binding by western blotting to assess the prion-like or phase transition potential of SMN (FIGS. 8a and b). […] H3K4me3 proteins were used as control for insoluble loading (FIG. 8c). Indeed, insoluble SMN has been reported to be important for the assembly of Cajal bodies (CBs) via the SUMO-like interacting motif (SIM-like). Thus, sumoylation is one of the cellular regulatory mechanisms that trigger nuclear SMN to form the separated phase though cross-β polymerization."}, "PFN1": {"biological_target": "T2, PFN1 (Homo sapiens, UniProt P07737)", "T2 construct": "endogenous in cells; host or cells: 293T", "T2 sequence (P07737 whole entry)": "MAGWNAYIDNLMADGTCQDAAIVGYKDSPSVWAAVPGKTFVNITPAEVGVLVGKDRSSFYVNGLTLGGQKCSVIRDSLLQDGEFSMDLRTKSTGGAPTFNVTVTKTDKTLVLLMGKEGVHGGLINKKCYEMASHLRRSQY", "test": "B-isox precipitation, PFN1", "assay_type": "binding", "settings": "293T cell fractions", "method": "as §1\nBecause visible SMN granules were not observed in the cytosol under normal conditions, we deduced that SMN polymers may participate in heteromeric interactions with other prion-like proteins to fulfill biological functions in the cytosol. […] Mutations in PFN1 cause co-aggregation with TDP-43 in patients with familial amyotrophic lateral sclerosis (ALS), supporting the hypothesis that PFN1 is a prion-like protein. […] Thus, we postulated that these interactions were mediated by prion-like nature. Furthermore, we incubated full-length SMN or a panel of exon deletion constructs of SMN with b-isox and then performed a western blot analysis to identify the b-isox binding site in SMN. […] The domains encoded by exons 2b and 6 have consistently been reported to self-interact. […] Based on the results of the solubility examination, variants containing exons 6-7 were not detected in the insoluble fraction, although those variants formed visible granules. […]"}, "Rb": {"biological_target": "T3, Rb (Homo sapiens, UniProt P06400)", "T3 construct": "endogenous in cells; host or cells: 293T", "T3 sequence (P06400 1-928)": "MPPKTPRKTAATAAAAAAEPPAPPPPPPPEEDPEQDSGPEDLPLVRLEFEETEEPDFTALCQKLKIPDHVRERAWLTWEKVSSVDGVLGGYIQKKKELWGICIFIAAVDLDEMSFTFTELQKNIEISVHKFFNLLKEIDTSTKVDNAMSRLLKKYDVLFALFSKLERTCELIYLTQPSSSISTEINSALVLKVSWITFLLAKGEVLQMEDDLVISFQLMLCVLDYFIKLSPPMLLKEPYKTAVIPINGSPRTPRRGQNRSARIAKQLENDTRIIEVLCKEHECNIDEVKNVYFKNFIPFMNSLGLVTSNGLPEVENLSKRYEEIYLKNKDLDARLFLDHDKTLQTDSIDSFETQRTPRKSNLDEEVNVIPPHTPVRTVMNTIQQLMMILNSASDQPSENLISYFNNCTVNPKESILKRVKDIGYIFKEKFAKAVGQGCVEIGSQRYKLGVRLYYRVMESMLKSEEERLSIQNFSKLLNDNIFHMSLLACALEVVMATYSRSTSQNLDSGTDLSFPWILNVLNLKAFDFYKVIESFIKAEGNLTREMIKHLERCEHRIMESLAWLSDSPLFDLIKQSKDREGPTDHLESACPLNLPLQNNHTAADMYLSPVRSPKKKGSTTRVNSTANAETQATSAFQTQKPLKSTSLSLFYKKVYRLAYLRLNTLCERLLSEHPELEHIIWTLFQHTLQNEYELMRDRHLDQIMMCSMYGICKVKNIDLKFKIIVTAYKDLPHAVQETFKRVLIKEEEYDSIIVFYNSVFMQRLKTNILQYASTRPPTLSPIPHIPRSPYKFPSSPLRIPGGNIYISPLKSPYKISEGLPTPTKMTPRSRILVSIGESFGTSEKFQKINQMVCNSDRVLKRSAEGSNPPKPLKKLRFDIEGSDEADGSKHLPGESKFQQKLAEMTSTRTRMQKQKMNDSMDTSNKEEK", "test": "B-isox precipitation, Rb", "assay_type": "binding", "settings": "100 μM b-isox, lysates of 293T cells, 4° C.", "method": "as §1\nWe incubated 100 μM b-isox with cell lysates of 293T cells at 4° C. to chemically precipitate whole prion-like proteins and then analyzed the efficiency of Rb binding by western blotting to assess the prion-like or phase transition potential of Rb (FIG. 22). […] The N-terminus of Rb (aa. 10-56) stabilizes prion-like conformation (FIG. 22c). Deletion of Rb N-terminus leads to protein degradation (FIG. 22d)."}, "[1]": {"biological_target": "T4, TDP-43 and Lam B recombinant proteins (Homo sapiens, UniProt Q13148)", "T4 construct": "Purified full-length TDP-43 and Lam B recombinant proteins (equivalent 3 μM monomer)", "T4 sequence (Q13148 whole entry)": "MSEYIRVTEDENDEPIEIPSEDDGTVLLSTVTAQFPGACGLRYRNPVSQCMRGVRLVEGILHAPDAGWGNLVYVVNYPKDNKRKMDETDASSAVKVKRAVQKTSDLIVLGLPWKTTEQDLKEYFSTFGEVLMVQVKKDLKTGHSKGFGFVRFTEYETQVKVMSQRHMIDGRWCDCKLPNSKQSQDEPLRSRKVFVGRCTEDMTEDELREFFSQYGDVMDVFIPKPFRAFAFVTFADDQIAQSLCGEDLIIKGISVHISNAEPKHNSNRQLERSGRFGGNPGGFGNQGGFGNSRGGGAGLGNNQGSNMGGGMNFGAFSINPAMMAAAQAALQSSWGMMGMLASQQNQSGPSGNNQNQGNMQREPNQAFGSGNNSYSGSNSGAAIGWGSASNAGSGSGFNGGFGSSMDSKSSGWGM", "test": "In vitro assembly of TDP-43 and Lam B filaments (electron microscopy)", "assay_type": "biochemical", "settings": "3 μM proteins, b-isox 100 μM, 2 hr, RT", "method": "To investigate the de novo mechanism of heterotypic interactions of the cross-β, we incubated TDP-43 and Lam B recombinant proteins with or without b-isox for 2 hr in vitro. […] In cells, the percentage of cross-β conformers of LC protein was approximately 10˜70% by the b-isox binding analysis, e.g. 21.2% cross-β conformers of TDP-43 in Mes23.5 dopaminergic neurons (FIG. 13j). We assume that inside the cells, most of the intrinsically disordered LC domains are protected through structure folding or binding with other proteins that limits the cross-β-nucleating reactions."}}}
{"smiles": "O=C1N[C@H]2[C@H](CS[C@H]2CCCCC(=O)OCCCCCCNC(=O)c2cc(-c3cccs3)on2)N1", "note": "[b-isox, biotinylated isoxazole]", "values": [{"measurement": "morphology of SMNA7 cells", "setting": "SMNA7 cells", "value": "became round and detached"}, {"measurement": "precipitation of SMN by b-isox", "setting": "SMN", "value": "precipitation of both SMN and sumoylated SMN"}, {"measurement": "precipitation of PFN1 by b-isox", "setting": "PFN1", "value": "precipitated"}, {"measurement": "precipitation of Rb by b-isox", "setting": "Rb", "value": "precipitation of Rb"}, {"measurement": "short cylindrical filaments of TDP-43 and Lam B", "setting": "[1]", "value": "disrupted"}]}
